Data taken from patent US10683216B2, “Selective adsorbent fabric for water purification” (Chemica Technologies, Inc., priority 2013, dated 2020).

Legend:
[1] = Kinetics of adsorption of organic toxins to ACF-H in Standard Synthetic Test Water; details: STW, pH 6.9~7.0; for ACF-H 50% (estimated time to achieve designated toxin removal): 50% removal; for ACF-H >95% (estimated time to achieve designated toxin removal): >95% removal
[2] = physchem
[3] = Kinetics of adsorption of organic toxins to ACF-OH in Standard Synthetic Test Water; details: STW, pH 6.9~7.0; for ACF-OH 50% (estimated time to achieve designated toxin removal): 50% removal; for ACF-OH removal reached, in brackets in the >95% column: >95% not reached; for ACF-OH >95% (estimated time to achieve designated toxin removal): >95% removal
[4] = Kinetics of adsorption of organic toxins to ACF-SBX in Standard Synthetic Test Water; details: STW, pH 6.9~7.0; for ACF-SBX 50% (estimated time to achieve designated toxin removal): 50% removal; for ACF-SBX >95% (estimated time to achieve designated toxin removal): >95% removal
[5] = Log P (logarithm of measured partition coefficient)

| Compound | ACF-H 50% (estimated time to achieve designated toxin removal) [1] | ACF-H >95% (estimated time to achieve designated toxin removal) [1] | logP [2] | ACF-OH 50% (estimated time to achieve designated toxin removal) [3] | ACF-OH removal reached, in brackets in the >95% column [3] | ACF-SBX 50% (estimated time to achieve designated toxin removal) [4] | ACF-SBX >95% (estimated time to achieve designated toxin removal) [4] | ACF-OH >95% (estimated time to achieve designated toxin removal) [3] | logP [5] | ACF-H removal reached, in brackets in the >95% column ([1]; >95% not reached) | Log P ([5]; logarithm of measured partition coefficient) |
| --- | --- | --- | --- | --- | --- | --- | --- | --- | --- | --- | --- |
| Oc1ccc(Cl)cc1Cl [2,4-dichlorophenol] | 1.5 min | 30.0 min | 3.17 | 2.6 min | (92%) | 2.3 min | 30.0 min |  |  |  |  |
| O=[N+]([O-])c1ccc(O)cc1 [4-nitrophenol] | 0.8 min | 20.0 min |  | 5.0 min |  | 1.5 min | 20.0 min | 60.0 min |  |  |  |
| CCCCCCCCCc1ccc(O)cc1 [4-nonylphenol] | 2.0 min | 30.0 min | 5.76 | 57.0 min | (73%) | 5.0 min | 45.0 min |  |  |  |  |
| C[C@]12CC[C@@H]3c4ccc(O)cc4CC[C@H]3[C@@H]1CC[C@@H]2O [17β-estradiol] | 0.5 min | 10.0 min |  | 0.5 min |  | 0.5 min | 10.0 min | 50.0 min |  |  |  |
| CCCCC(CC)COC(=O)c1ccccc1C(=O)OCC(CC)CCCC (stereo not shown) [DEHP, bis(2-ethylhexyl)phthalate] | 20.0 min | 80.0 min |  | 43.3 min | (92%) | 3.8 min | 20.0 min |  | 7.8 |  |  |
| CCN(CC)N=O [NDEA, N-nitrosodiethylamine] | 3.8 min |  | 0.48 | 30.0 min | (59%) | 4.6 min | 60.0 min |  |  | (93%) |  |
| c1ccc2cc3ccccc3cc2c1 [anthracene] | ^♦0.5 min | 53.0 min |  | 0.4 min |  | 0.4 min | 12.5 min | 30.0 min |  |  |  |
| CCNc1nc(Cl)nc(NC(C)C)n1 [atrazine] | 2.0 min | 20.0 min | 2.61 | 6.0 min | (90%) | 1.6 min | 10.0 min |  |  |  |  |
| CC(C)(c1ccc(O)cc1)c1ccc(O)cc1 [bisphenol A] | 5.0 min | 30.0 min | 3.32 | 45.0 min | (70%) | 4.0 min | 30.0 min |  |  |  |  |
| Cc1ccc(S(=O)(=O)[N-]Cl)cc1.[Na+] [chloramine-T] | 3.3 min | 25.0 min |  | 50.0 min | (82%) | 3.3 min | 25.0 min |  |  |  |  |
| Clc1ccccc1 [chlorobenzene] | 0.3 min | 2.0 min |  | 0.3 min |  | 0.3 min | 2.0 min | 2.0 min |  |  |  |
| Brc1c(Br)c(Br)c(Oc2c(Br)c(Br)c(Br)c(Br)c2Br)c(Br)c1Br [deca-BDE, decabromodiphenyl ether] | 0.4 min |  | 9.97 |  |  | 0.5 min |  |  |  |  |  |
| CCOC(=O)c1ccccc1C(=O)OCC [diethyl phthalate] | 5.0 min | 50.0 min | 2.42 | 60.0 min | (69%) | 3.5 min | 25.0 min |  |  |  |  |
| CN(C)C(=O)Nc1ccc(Cl)c(Cl)c1 [diuron] | 3.0 min | 15.0 min |  | 30.0 min |  | 3.0 min | 15.0 min | 55.0 min |  |  |  |
| CCc1ccccc1 [ethylbenzene] | 0.3 min |  |  | 0.3 min |  | 0.3 min |  | 0.5 min |  |  |  |
| Clc1ccccc1Cl [o-dichlorobenzene] | 1.5 min | 3.0 min | 3.38 | 1.5 min |  | 0.8 min | 3.0 min | 3.0 min |  |  |  |
| Cc1ccc(O)cc1 [p-cresol] |  |  | 1.97 |  |  |  |  |  |  |  |  |
| Clc1ccc(Cl)cc1 [p-dichlorobenzene] | 1.0 min | 2.0 min |  | 1.0 min |  | 1.0 min | 2.0 min | 2.0 min |  |  | 3.44 |
| Oc1cc(Cl)ccc1Oc1ccc(Cl)cc1Cl [triclosan] | 2.5 min | 55.0 min |  | 26.0 min | (91%) | 1.7 min | 46.7 min |  | 4.53 |  |  |
| O=c1[nH]c(=O)c2[nH]c(=O)[nH]c2[nH]1 [uric acid] | 3.0 min | 30.0 min |  | 15.0 min |  | 3.0 min | 30.0 min | 60.0 min | -2.92 |  |  |
